# In US20230416205A1, “COMPOUNDS, COMPOSITIONS, AND METHODS” (Denali Therapeutics Inc, priority 2020, published 2023):
# Where two headings read alike, the source gives them in different places.
# Test system: NLRP3
# Experiment: IL-1β secretion assay in PMA-differentiated, LPS/nigericin-stimulated THP-1 cells (384-well, ELISA read-out)
# Format: cell-based, human
# Procedure, shortened: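 THP-1 cells differentiated with PMA (5 ng/mL, 40 h), primed in serum-free medium with 25 ng/mL LPS for 2 h, treated with compounds 1 h (0.5% DMSO), then stimulated with nigericin for 2 h at 37 °C. Supernatant IL-1β measured by ELISA; responses normalized to LPS+5 μM nigericin and LPS-only controls.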
# [1] = Homo sapiens, THP-1, IL-1β secretion, PMA-differentiated THP-1 cells, LPS then nigericin stimulation, ELISA read at 450 nm, read-out: Activity
# [2] = Homo sapiens, THP-1, Table 4, IL-1β secretion, LPS/nigericin-stimulated THP-1 cells, read-out: IC50
Compound,IC50 [1],IC50 [2],"IC50 (Table 4, IL-1β secretion, LPS/nigericin-stimulated THP-1 cells, read-out: IC50)"
"O=C(CN1CC2(CC2)c2cc(C3CC3(F)F)ccc2C1=O)Nc1ncc(F)cn1 (stereo not shown) [Example 88, 2-[6-(2,2-difluorocyclopropyl)-1-oxo-spiro[3H-isoquinoline-4,1′-cyclopropane]-2-yl]-N-(5-fluoropyrimidin-2-yl)acetamide]",< 10 µM,3.61 µM,–
"Cc1nc(NC(=O)CN2CC3(CC3)c3cc(Br)ccc3C2=O)nn1C [Example 376, 2-(6-bromo-1-oxospiro[3H-isoquinoline-4,1′-cyclopropane]-2-yl)-N-(1,5-dimethyl-1,2,4-triazol-3-yl)acetamide]",–,1.83 µM,–
"O=C(CN1CC2(CC23CC3)c2cc(Br)ccc2C1=O)Nc1ncc(F)cn1 (stereo not shown) [Example 81, N-(5-fluoropyrimidin-2-yl)-2-(6-bromo-1-oxospiro[3H-isoquinoline-4,1′-(spiro[2.2]pentan-1-yl)]-2-yl)acetamide]",< 10 µM,2.56 µM,–
"O=C(CN1CC2(CC2)c2cc(Br)ccc2C1=O)NC1CCN(CCC(F)(F)F)CC1 [Example 366, 2-(6-bromo-1-oxospiro[3H-isoquinoline-4,1′-cyclopropane]-2-yl)-N-[1-(3,3,3-trifluoropropyl)piperidin-4-yl]acetamide]",–,19 µM,–
"O=C(CN1CC2(CC2(F)F)c2cc(Br)ccc2C1=O)Nc1ncc(F)cn1 (single isomer, unassigned) [Example 290, 2-[6-bromo-1′,1′-difluoro-1-oxospiro[3H-isoquinoline-4,2′-cyclopropane]-2-yl]-N-(5-fluoropyrimidin-2-yl)acetamide]",< 10 µM,–,3.73 µM
"O=C(CN1CC2(CC2)c2cc(Br)ccc2C1=O)N[C@@H]1CCCN(C2COC2)C1 [Example 365, 2-(6-bromo-1-oxospiro[3H-isoquinoline-4,1′-cyclopropane]-2-yl)-N-[(3R)-1-(oxetan-3-yl)piperidin-3-yl]acetamide]",–,2.14 µM,–
"CC1CN(CC(=O)NC2CC(C)(O)C2)C(=O)c2ccc(Br)cc21 (stereo not drawn) [Example 69, 2-(6-bromo-4-methyl-1-oxo-3,4-dihydroisoquinolin-2-yl)-N-(cis-3-hydroxy-3-methyl-cyclobutyl)acetamide]",< 10 µM,0.643 µM,–
"O=C(CN1CC2(CC2)c2cc(Br)c(F)cc2C1=O)Nc1ncc(F)cn1 [Example 99, 2-(6-bromo-7-fluoro-1-oxospiro[3H-isoquinoline-4,1′-cyclopropane]-2-yl)-N-(5-fluoropyrimidin-2-yl)acetamide]",< 10 µM,0.598 µM,–
"Cc1nc(NC(=O)CN2CC3(CC3)c3cc(Br)ccc3C2=O)ncc1C#N [Example 259, 2-(6-bromo-1-oxospiro[3H-isoquinoline-4,1′-cyclopropane]-2-yl)-N-(5-cyano-4-methylpyrimidin-2-yl)acetamide]",< 10 µM,0.437 µM,–
"N#Cc1ccc2oc(NC(=O)CN3CC4(CC4)c4cc(Br)ccc4C3=O)nc2c1 [Example 219, 2-(6-bromo-1-oxospiro[3H-isoquinoline-4,1′-cyclopropane]-2-yl)-N-(5-cyano-1,3-benzoxazol-2-yl)acetamide]",< 10 µM,1.62 µM,–
"O=C(CN1CC2(CC2)c2cc(Br)ccc2C1=O)NC1CS(=O)(=O)C1 [Example 118, 2-(6-bromo-1-oxospiro[3H-isoquinoline-4,1′-cyclopropane]-2-yl)-N-(1,1-dioxothietan-3-yl)acetamide]",> 15 µM,22.4 µM,–
"O=C(CN1CC2(CC2)c2cc(Br)ccc2C1=O)NC1CCOC(C2CC2)C1 (stereo not shown) [Example 24, 2-(6-bromo-1-oxo-spiro[3H-isoquinoline-4,1′-cyclopropane]-2-yl)-N-(2-cyclopropyltetrahydropyran-4-yl)acetamide]",< 10 µM,7.17 µM,–
"O=C(CN1CC2(CC2)c2cc(Br)ccc2C1=O)Nc1ccc2ncccc2c1 [Example 130, 2-(6-bromo-1-oxospiro[3H-isoquinoline-4,1′-cyclopropane]-2-yl)-N-quinolin-6-ylacetamide]",< 10 µM,1.23 µM,–
"CC1(C)COC(NC(=O)CN2CC3(CC3)c3cc(Br)ccc3C2=O)=N1 [Example 405, 2-(6-bromo-1-oxospiro[3H-isoquinoline-4,1′-cyclopropane]-2-yl)-N-(4,4-dimethyl-5H-1,3-oxazol-2-yl)acetamide]",–,18 µM,–
"O=C(CN1CC2(CC2)c2cc(Br)ccc2C1=O)NCC1COC1 [Example 117, 2-(6-bromo-1-oxospiro[3H-isoquinoline-4,1′-cyclopropane]-2-yl)-N-(oxetan-3-ylmethyl)acetamide]",> 15 µM,19.8 µM,–
"Cc1nc(NC(=O)CN2CC3(CC3)c3cc(Br)ccc3C2=O)ncc1F [Example 184, 2-(6-bromo-1-oxospiro[3H-isoquinoline-4,1′-cyclopropane]-2-yl)-N-(5-fluoro-4-methylpyrimidin-2-yl)acetamide]",< 10 µM,0.651 µM,–
"Cc1cn2nc(NC(=O)CN3CC4(CC4)c4cc(Br)ccc4C3=O)ccc2n1 [Example 400, 2-(6-bromo-1-oxospiro[3H-isoquinoline-4,1′-cyclopropane]-2-yl)-N-(2-methylimidazo[1,2-b]pyridazin-6-yl)acetamide]",–,0.612 µM,–
"Cc1ccnc(NC(=O)CN2CC3(CC3)c3cc(Br)ccc3C2=O)c1 [Example 182, 2-(6-bromo-1-oxospiro[3H-isoquinoline-4,1′-cyclopropane]-2-yl)-N-(4-methylpyridin-2-yl)acetamide]",< 10 µM,3.14 µM,–
